Results taken from PMC12155096 (International Journal of Molecular Sciences, 2025).
Like-named read-outs stand apart in the source and are kept apart here.

Tests used:
human CYP2C9 [1] = biological target: T1, human CYP2C9 (Homo sapiens, UniProt P11712); assay: biochemical
human CYP1A2 [2] = biological target: T2, human CYP1A2 (Homo sapiens, UniProt P05177); assay: biochemical
T2 sequence (P05177 1-516): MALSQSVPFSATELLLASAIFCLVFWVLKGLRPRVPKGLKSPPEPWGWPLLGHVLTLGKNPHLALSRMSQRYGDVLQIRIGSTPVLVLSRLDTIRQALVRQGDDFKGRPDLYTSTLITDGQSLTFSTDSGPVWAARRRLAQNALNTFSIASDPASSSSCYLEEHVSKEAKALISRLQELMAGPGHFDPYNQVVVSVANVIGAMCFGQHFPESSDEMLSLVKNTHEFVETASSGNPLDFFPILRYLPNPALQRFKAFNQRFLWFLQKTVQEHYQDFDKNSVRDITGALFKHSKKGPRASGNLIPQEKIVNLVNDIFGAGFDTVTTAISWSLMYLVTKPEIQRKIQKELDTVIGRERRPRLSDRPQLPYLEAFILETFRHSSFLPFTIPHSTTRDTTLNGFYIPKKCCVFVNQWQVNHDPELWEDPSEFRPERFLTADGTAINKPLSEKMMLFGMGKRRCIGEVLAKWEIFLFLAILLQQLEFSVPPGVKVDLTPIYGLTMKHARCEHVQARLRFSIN

human CYP2C19 [3] = biological target: T3, human CYP2C19 (Homo sapiens, UniProt P33261)
human CYP2D6 = human CYP2D6 (Homo sapiens, UniProt P10635)
CYP3A4 = CYP3A4 (Homo sapiens, UniProt P08684)
human CYP2C19 [4] = biological target: T3, human CYP2C19; assay: biochemical
human CYP1A2 [5] = biological target: T2, human CYP1A2
human CYP2C9 [6] = biological target: T1, human CYP2C9
[7] = CYP2C19 AC50 (half-maximal activity concentration)
[8] = CYP2C9 AC50 (half-maximal activity concentration)
[9] = CYP1A2 AC50 (half-maximal activity concentration)

Sequence of human CYP2D6 (P10635 whole entry): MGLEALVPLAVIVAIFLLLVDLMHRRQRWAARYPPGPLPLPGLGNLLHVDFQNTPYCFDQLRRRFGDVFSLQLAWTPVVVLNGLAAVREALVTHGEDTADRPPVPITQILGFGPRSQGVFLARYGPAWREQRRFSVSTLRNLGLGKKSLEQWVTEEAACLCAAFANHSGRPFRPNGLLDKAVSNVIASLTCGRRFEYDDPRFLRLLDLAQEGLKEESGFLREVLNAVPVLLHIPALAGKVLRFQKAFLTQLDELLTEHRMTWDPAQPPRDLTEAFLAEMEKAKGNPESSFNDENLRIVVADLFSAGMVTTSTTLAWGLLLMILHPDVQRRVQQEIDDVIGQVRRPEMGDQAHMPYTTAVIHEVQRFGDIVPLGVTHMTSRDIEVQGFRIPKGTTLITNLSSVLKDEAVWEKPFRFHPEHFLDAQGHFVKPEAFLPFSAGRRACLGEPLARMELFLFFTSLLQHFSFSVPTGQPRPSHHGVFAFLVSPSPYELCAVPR
T3 sequence (P33261 whole entry): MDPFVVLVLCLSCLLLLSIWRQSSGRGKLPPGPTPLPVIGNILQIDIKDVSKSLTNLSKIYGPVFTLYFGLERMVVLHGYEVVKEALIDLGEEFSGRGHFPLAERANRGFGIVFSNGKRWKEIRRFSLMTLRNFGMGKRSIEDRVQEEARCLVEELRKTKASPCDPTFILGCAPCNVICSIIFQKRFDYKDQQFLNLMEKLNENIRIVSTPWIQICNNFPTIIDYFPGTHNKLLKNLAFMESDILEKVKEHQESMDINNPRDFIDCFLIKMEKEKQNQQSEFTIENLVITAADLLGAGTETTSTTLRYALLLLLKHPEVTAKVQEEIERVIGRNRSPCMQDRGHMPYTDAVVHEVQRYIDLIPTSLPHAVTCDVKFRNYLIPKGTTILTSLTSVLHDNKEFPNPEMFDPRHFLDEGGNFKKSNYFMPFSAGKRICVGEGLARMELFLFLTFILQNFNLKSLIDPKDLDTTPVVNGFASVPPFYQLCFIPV
Sequence of CYP3A4 (P08684 whole entry): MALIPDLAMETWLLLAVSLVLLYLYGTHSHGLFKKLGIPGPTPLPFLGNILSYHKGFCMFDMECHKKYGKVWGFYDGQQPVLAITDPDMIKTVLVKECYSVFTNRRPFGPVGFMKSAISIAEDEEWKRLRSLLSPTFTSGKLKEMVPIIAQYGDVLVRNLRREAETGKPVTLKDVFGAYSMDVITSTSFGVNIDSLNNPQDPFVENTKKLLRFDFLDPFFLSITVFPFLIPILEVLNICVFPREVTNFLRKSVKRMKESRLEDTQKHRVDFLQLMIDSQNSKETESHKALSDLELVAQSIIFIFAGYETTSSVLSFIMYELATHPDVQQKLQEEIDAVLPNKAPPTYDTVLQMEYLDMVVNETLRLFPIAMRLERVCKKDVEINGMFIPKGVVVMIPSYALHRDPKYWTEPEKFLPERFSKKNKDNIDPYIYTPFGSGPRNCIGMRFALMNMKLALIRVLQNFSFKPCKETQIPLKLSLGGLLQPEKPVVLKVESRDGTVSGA
T1 sequence (P11712 whole entry): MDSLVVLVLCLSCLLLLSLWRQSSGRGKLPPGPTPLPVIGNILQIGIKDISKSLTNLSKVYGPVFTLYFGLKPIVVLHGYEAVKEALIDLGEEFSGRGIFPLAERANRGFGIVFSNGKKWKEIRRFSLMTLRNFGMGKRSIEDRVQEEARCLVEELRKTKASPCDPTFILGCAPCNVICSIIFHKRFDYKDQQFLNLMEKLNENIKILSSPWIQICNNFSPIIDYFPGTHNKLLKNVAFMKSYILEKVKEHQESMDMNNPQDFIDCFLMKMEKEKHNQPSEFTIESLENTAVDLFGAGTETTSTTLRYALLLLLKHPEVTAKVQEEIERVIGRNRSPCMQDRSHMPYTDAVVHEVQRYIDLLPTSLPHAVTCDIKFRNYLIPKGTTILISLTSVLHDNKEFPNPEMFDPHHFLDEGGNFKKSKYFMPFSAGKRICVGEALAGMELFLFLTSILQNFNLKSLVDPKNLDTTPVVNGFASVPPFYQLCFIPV

| SMILES | CYP2C19 AC50 (half-maximal activity concentration) (human CYP2C19 [3]) | CYP2D6 AC50 (half-maximal activity concentration) (human CYP2D6) | CYP3A4 AC50 (half-maximal activity concentration) (CYP3A4) | AC50 (human CYP2C9 [1]; [8]) | AC50 (human CYP1A2 [2]; [9]) | AC50 (CYP3A4) | also measured |
| --- | --- | --- | --- | --- | --- | --- | --- |
| CCOc1ccccc1C(N)=O [2-Ethoxybenzamide] | Inactive | Inactive | Inactive | – | – | – | AC50 (human CYP2C9 [1]): 31 ± 3.57 µM; AC50 (human CYP1A2 [2]): 16.8 ± 1.09 µM |
| CC(C)(C)c1cccc(O)c1 [3-tert-Butylphenol] | – | Inactive | Inactive | – | – | – | AC50 (human CYP2C19 [4]): 23.9 µM; CYP1A2 AC50 (half-maximal activity concentration) (human CYP1A2 [5]): Inconclusive inhibitor; CYP2C9 AC50 (half-maximal activity concentration) (human CYP2C9 [6]): Inconclusive inhibitor |
| CC(C)(C)c1ccc(OC(=O)c2ccccc2O)cc1 [4-tert-Butylphenyl salicylate] | – | Inactive | Inactive | – | – | – | AC50 (human CYP2C9 [1]): 24.7 µM; AC50 (human CYP1A2 [2]): 40.1 µM; AC50 (human CYP2C19 [4]): 14.2 µM |
| C[C@H](CSC(=O)c1ccccc1)C(=O)N1C[C@@H](Sc2ccccc2)C[C@H]1C(=O)O [Zofenopril] | – | Inactive | Inactive | – | – | – | AC50 (human CYP2C19 [4]; [7]): 1.71 µM; CYP1A2 AC50 (half-maximal activity concentration) (human CYP1A2 [5]): Inactive; CYP2C9 AC50 (half-maximal activity concentration) (human CYP2C9 [6]): Inactive |
| C[C@]12CC[C@@H]3c4ccc(O)cc4CC[C@H]3[C@@H]1C[C@@H](O)[C@@H]2O [Estriol] | – | Inactive | Inactive | 21 µM | 34.4 µM | – | AC50 (human CYP2C19 [4]; [7]): 31.2 µM |
| CCC(C)c1ccccc1O (stereo not shown) [2-(Butan-2-yl)phenol] | – | Inactive | Inconclusive inhibitor | 53.2 µM | 38.5 µM | – | AC50 (human CYP2C19 [4]; [7]): 9.46 µM |
| COC(=O)Nc1nc2ccc(C(=O)c3ccccc3)cc2[nH]1 [Mebendazole] | Inactive | Inactive | Inactive | 3.89 µM | 14 µM | – | – |
| Cc1cc(=O)oc2cc(O)ccc12 [4-Methylumbelliferone] | Inactive | Inactive | Inactive | 14.6 µM | 28.6 µM | – | – |
| NC(=O)Cc1cccc(C(=O)c2ccccc2)c1N [Nepafenac] | – | Inactive | Inactive | 25.3 µM | 14.4 µM | – | AC50 (human CYP2C19 [4]; [7]): 29.9 µM |
| Cc1cc(O)cc(C)c1Cl [4-Chloro-3,5-dimethylphenol] | Inconclusive inhibitor | Inactive | Inactive | 17.4 µM | 14.2 µM | – | – |
| COC(=O)Nc1nc2ccc(C(=O)c3cccs3)cc2[nH]1 [Nocodazole] | Inconclusive inhibitor | Inconclusive inhibitor | Inactive | 4.43 µM | 15.2 µM | – | – |
| COc1cccc(O)c1 [3-Methoxyphenol] | Inactive | Inactive | Inactive | – | – | – | AC50 (human CYP2C9 [1]): 40.4 µM; AC50 (human CYP1A2 [2]): 49.3 µM |
| O=[N+]([O-])c1ccc2c3c(cccc13)CC2 [5-Nitroacenaphthene] | – | Inactive | Inconclusive inhibitor | 8.98 µM | 2.25 µM | – | AC50 (human CYP2C19 [4]; [7]): 33.6 µM |
| O=[N+]([O-])c1ccc(O)cc1C(F)(F)F [3-Trifluoromethyl-4-nitrophenol] | – | Inconclusive inhibitor | Inconclusive inhibitor | 34.1 µM | 56.6 µM | – | AC50 (human CYP2C19 [4]; [7]): 27.9 µM |
| CCNc1nc(NC(C)CC)nc(OC)n1 (stereo not shown) [Secbumeton] | – | Inactive | Inactive | – | – | – | AC50 (human CYP2C9 [1]): 43.5 µM; AC50 (human CYP1A2 [2]): 26.2 µM; AC50 (human CYP2C19 [4]): 26.4 µM |
| Oc1cc(Cl)ccc1Cl [2,5-Dichlorophenol] | Inconclusive inhibitor | Inactive | Inactive | 32.8 µM | 33.9 µM | – | – |

| SMILES | CYP2C19 AC50 (half-maximal activity concentration) (human CYP2C19 [3]) | CYP2D6 AC50 (half-maximal activity concentration) (human CYP2D6) | CYP3A4 AC50 (half-maximal activity concentration) (CYP3A4) | AC50 (human CYP2C9 [1]; [8]) | AC50 (human CYP1A2 [2]; [9]) | AC50 (CYP3A4) | also measured |
| --- | --- | --- | --- | --- | --- | --- | --- |
| CCNc1nc(NC(C)C)nc(OC)n1 [Atraton] | – | Inactive | Inconclusive inhibitor | 38.5 µM | 28.4 µM | – | AC50 (human CYP2C19 [4]; [7]): 32.1 µM |
| Oc1ccc(Cc2ccc(O)cc2)cc1 [Bis(4-hydroxyphenyl)methane] | Inconclusive inhibitor | Inconclusive inhibitor | Inconclusive inhibitor | 11.8 µM | 38.8 µM | – | – |
| COC(=O)c1ccc(O)cc1 [Methylparaben] | Inactive | Inactive | Inactive | 17.4 µM | 20.8 µM | – | – |
| Oc1cc(Cl)c(Cl)cc1Cl [2,4,5-Trichlorophenol] | Inconclusive inhibitor | Inactive | Inactive | 22.4 µM | 20.8 µM | – | – |
| CCNc1nc(Cl)nc(NCC)n1 [Simazine] | Inactive | Inconclusive inhibitor | Inactive | 5.09 µM | 7.9 µM | – | – |
| COC(=O)CCCCCCCC(=O)OC [Dimethyl nonanedioate] | Inconclusive inhibitor | Inconclusive inhibitor | – | – | – | 58.1 µM | AC50 (human CYP1A2 [5]): 40.1 µM; CYP2C9 AC50 (half-maximal activity concentration) (human CYP2C9 [6]): Inconclusive inhibitor |
| O=C(Cl)c1cc(Cl)cc(Cl)c1 [3,5-Dichlorobenzoyl chloride] | Inconclusive inhibitor | Inactive | – | – | – | 50.2 µM | CYP1A2 AC50 (half-maximal activity concentration) (human CYP1A2 [5]): Inactive; CYP2C9 AC50 (half-maximal activity concentration) (human CYP2C9 [6]): Inconclusive inhibitor |
| CCC(CC)Nc1ccc(C)c(C)c1 [N-(1-Ethylpropyl)-3,4-xylidine] | – | Inconclusive inhibitor | – | – | – | 1.45 µM | AC50 (human CYP2C19 [3]): 10.7 µM; AC50 (human CYP1A2 [5]): 11.6 µM; AC50 (human CYP2C9 [6]): 33.6 µM |
| CCCCCCCCC(CCCCCC)C(=O)O (stereo not shown) [2-Hexyldecanoic acid] | – | Inactive | – | – | – | 65.1 µM | AC50 (human CYP2C19 [3]): 34.3 µM; CYP1A2 AC50 (half-maximal activity concentration) (human CYP1A2 [5]): Inactive; AC50 (human CYP2C9 [6]): 26.2 µM |
| C=C(C)C(=O)OCCCCCCOC(=O)C(=C)C [1,6-Hexanediol dimethacrylate] | – | Inactive | – | – | – | 16.9 µM | AC50 (human CYP2C19 [3]): 51.5 µM; AC50 (human CYP1A2 [5]): 37 µM; AC50 (human CYP2C9 [6]): 37.4 µM |
| Cl.O.c1cnc2c(c1)ccc1cccnc12 | – | – | – | – | – | 38.5 µM | AC50 (human CYP2C19 [3]): 8.94 µM; AC50 (human CYP1A2 [5]): 10.6 µM; AC50 (human CYP2D6): 38.5 µM; AC50 (human CYP2C9 [6]): 4.59 µM |
| O=C(c1ccc(O)c(O)c1)c1ccc(O)cc1O [2,3',4,4'-Tetrahydroxybenzophenone] | – | – | – | – | – | 18.4 µM | AC50 (human CYP2C19 [3]): 33.2 µM; AC50 (human CYP1A2 [5]): 34.3 µM; AC50 (human CYP2D6): 7.5 µM; AC50 (human CYP2C9 [6]): 4.22 µM |
| Cl.Nc1c2c(nc3c1CCC3)CCCC2.O [Ipidacrine hydrochloride hydrate] | Inactive | – | – | – | – | 14.9 µM | CYP1A2 AC50 (half-maximal activity concentration) (human CYP1A2 [5]): Inconclusive inhibitor; AC50 (human CYP2D6): 10.7 µM; CYP2C9 AC50 (half-maximal activity concentration) (human CYP2C9 [6]): Inactive |
| O=C(O)C(F)(F)C(F)(F)C(F)(F)C(F)(F)C(F)(F)F [PFHxA] | Inactive | Inconclusive inhibitor | – | – | – | 58.1 µM | CYP1A2 AC50 (half-maximal activity concentration) (human CYP1A2 [5]): Inactive; AC50 (human CYP2C9 [6]): 17.5 µM |
| O=C(Cl)c1ccc(F)c(Cl)c1 [3-Chloro-4-fluorobenzoyl chloride] | Inconclusive inhibitor | Inconclusive inhibitor | – | – | – | 55.5 µM | CYP1A2 AC50 (half-maximal activity concentration) (human CYP1A2 [5]): Inactive; CYP2C9 AC50 (half-maximal activity concentration) (human CYP2C9 [6]): Inactive |
| CCOC(=O)COc1ccc2c(C)c(CCN(CC)CC)c(=O)oc2c1Cl.Cl [Cloricromen hydrochloride] | Inactive | – | – | – | – | 16.8 µM | CYP1A2 AC50 (half-maximal activity concentration) (human CYP1A2 [5]): Inconclusive inhibitor; AC50 (human CYP2D6): 18.2 µM; CYP2C9 AC50 (half-maximal activity concentration) (human CYP2C9 [6]): Inactive |
